Laboratory results: patent publication EP0465096A1, “Plasma cholesterol level lowering composition” (MERCK & CO. INC., priority 1990, dated 1992)
Marks after values point to notes of the source that are not given here.

Test system: dogs
Experiment: Plasma cholesterol lowering in dogs, oral bolus (rapid release) vs 24 h gastric infusion (Example 1)
Assay type: in vivo
Details: ammonium salt, 10 mg/kg/day for 28 days, vs pre-dosing level
Procedure: 7-[1,2,6,7,8,8a(R)-hexahydro-2(S),6(R)-dimethyl-8(S)-(2,2-dimethylbutyryloxy)-naphthalenyl-1(S)]-3(R),5(R)-dihydroxyheptanoic acid, an HMG-CoA reductase inhibitor which is the ring opened dihydroxy acid of simvastatin, was administered to dogs as the ammonium salt as either an oral bolus dose (rapid release) or as a continuous gastric infusion over 24 hours (simulated controlled release). In both cases, each dog received a dose of 10 mg/kg/day for 28 days of the above named HMG-CoA reductase inhibitor. Plasma cholesterol was determined throughout the entire study and drug-treatment levels compared to control cholesterol levels (pre-dosing) for each dog. Circulating plasma levels of the above named HMG-CoA reductase inhibitor were determined on Day 16 of each drug dosing period.

`CCC(C)(C)C(=O)O[C@H]1C[C@@H](C)C=C2C=C[C@H](C)[C@H](CC[C@@H](O)C[C@@H](O)CC(=O)O)[C@H]21` [7-[1,2,6,7,8,8a(R)-hexahydro-2(S),6(R)-dimethyl-8(S)-(2,2-dimethylbutyryloxy)-naphthalenyl-1(S)]-3(R),5(R)-dihydroxyheptanoic acid] was tested, and the “Mean Maximum Reduction In Plasma Cholesterol” value (continuous gastric infusion over 24 hours (simulated controlled release), mean ± SD, n = 4 dogs) was 60 ± 4.0^b percent and the “Mean Maximum Reduction In Plasma Cholesterol” value (oral bolus dose (rapid release), n = 1 dog) was 31^a percent.
